Measured values published in US10231957B2, “Histone demethylase inhibitors” (CELGENE QUANTICEL RESEARCH, INC., priority 2014, dated 2019).

System: KYSE-150 esophageal carcinoma cell line
Assay: In vitro cell-based assay: cellular proliferation via BrdU incorporation
Details: Homo sapiens; KYSE-150 cells, BrdU incorporation after 168 hr compound incubation
Protocol: Cell lines tested include the JMJD2C gene amplified cell line KYSE-150. This is a quantitative ELISA assay measuring DNA incorporation of BrdU during S-phase as a direct readout of cellular proliferation.
Assay Principle: This is a colorimetric immunoassay for the quantification of cell proliferation. Cells treated for 168 hours with test compounds are assayed for their ability to go through S-phase as a measure of their proliferative potential.
Assay Method: The human KYSE-150 (SMAD4 mut, TP53 mut) esophageal carcinoma cell line was seeded at 2,000 cells/well on a 96-well tissue culture treated plate. After an overnight incubation, cells were treated with compound in an […] dilution series with final concentrations ranging from 100 μM to 2 nM. Cells were then incubated in the presence of compound for 168 hr. After compound incubation the cells were assayed using a BrdU Cell Proliferation ELISA (Roche). The cells were first incubated with BrdU labeling reagent for 2 hr. After 2 hr, the BrdU incorporated cells were fixed and denatured, probed with an anti-BrdU-Peroxidase antibody for 1.5 hr and washed. Finally, a tetramethylbenzidine peroxidase substrate was added to each well for 15 min followed by a H2SO4 stop solution. The plate was read at 450 nm, and the raw optical density data was transferred into XLFit (IDBS) for IC50 calculation using the formula: fit=(D+((Vmax*(x^n))/((x^n)+(Km^n))))

IC50 [µM]	SMILES
> 10	COC(=O)c1ccnc2cc(-c3c4cc(Cl)ccc4nn3CCN3CCCC3)[nH]c12 [Example 10d, Methyl 2-{5-chloro-2-[2-(pyrrolidin-1-yl)ethyl]-2H-indazol-3-yl}-1H-pyrrolo[3,2-b]pyridine-7-carboxylate]
≤ 0.1	CN(c1ccccc1)c1ccc2c(-c3cc4nccc(C(=O)O)c4[nH]3)n(C)nc2c1 [Example 11, 2-{2-Methyl-6-[methyl(phenyl)amino]-2H-indazol-3-yl}-1-H-pyrrolo[3,2-b]pyridine-7-carboxylic Acid]
> 10	Cn1nc(-c2cc3nccc(C(=O)O)c3[nH]2)c2ccc(F)cc21 [Example 16, 2-(6-Fluoro-1-methyl-1H-indazol-3-yl)-1H-pyrrolo[3,2-b]pyridine-7-carboxylic Acid]
